Results published in paper PMC4266452, “Prediction of Thorough QT study results using action potential simulations based on ion channel screens” (Journal of Pharmacological and Toxicological Methods, 2014).
Several values for one entry are separate records, joined by “and”; a condition that tells them apart may be missing. Identical values can stand only once. Like-named read-outs stand apart in the source and are kept apart here.

Experiments:
[1] = Plasma concentration (Cmax) during the TQT study, total and calculated free; assay type: in vivo, human
[2] = test system: QT interval on the body surface ECG; details: cited from earlier work; for QT shortening in the TQT study: range over the three drugs
KCNQ1/MinK = KCNQ1/MinK (Homo sapiens, UniProt P51787); test: IonWorks Quattro KCNQ1/MinK screen (AstraZeneca, Q); details: −log10 of IC50 in Molar, Hill n = 1, 0.0 = pIC50 ≤ 0 fitted
KCNQ1/MinK, sequence (P51787 whole entry): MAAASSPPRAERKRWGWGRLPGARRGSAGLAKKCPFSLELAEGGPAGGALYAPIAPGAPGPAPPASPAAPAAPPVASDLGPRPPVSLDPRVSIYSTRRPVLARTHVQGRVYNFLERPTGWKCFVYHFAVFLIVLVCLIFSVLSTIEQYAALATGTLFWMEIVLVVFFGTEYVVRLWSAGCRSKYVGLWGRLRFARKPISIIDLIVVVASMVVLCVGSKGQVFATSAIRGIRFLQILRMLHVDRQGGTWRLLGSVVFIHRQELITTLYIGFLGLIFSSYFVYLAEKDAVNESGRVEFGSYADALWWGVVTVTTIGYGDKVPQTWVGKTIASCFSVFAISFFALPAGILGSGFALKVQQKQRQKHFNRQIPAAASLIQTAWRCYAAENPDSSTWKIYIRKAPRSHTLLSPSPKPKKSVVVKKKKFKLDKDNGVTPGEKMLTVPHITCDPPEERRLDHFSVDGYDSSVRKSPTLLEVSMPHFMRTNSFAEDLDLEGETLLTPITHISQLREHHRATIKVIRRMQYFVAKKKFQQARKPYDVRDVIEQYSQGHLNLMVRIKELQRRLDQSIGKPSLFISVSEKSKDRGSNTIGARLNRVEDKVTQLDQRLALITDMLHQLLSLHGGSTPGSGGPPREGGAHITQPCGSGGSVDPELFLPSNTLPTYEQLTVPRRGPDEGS

[3] = cited from earlier work
[4] = ref Gintant (2011); cited from earlier work
Kv4.3/KChIP2.2 = target: T1, Kv4.3/KChIP2.2 (Homo sapiens, UniProt Q9UK17); test: IonWorks Quattro Kv4.3/KChIP2.2 screen (AstraZeneca, Q); assay type: cell-based; details: IonWorks Quattro, −log10 of IC50 in Molar, Hill n = 1
T1 sequence (Q9UK17 1-655): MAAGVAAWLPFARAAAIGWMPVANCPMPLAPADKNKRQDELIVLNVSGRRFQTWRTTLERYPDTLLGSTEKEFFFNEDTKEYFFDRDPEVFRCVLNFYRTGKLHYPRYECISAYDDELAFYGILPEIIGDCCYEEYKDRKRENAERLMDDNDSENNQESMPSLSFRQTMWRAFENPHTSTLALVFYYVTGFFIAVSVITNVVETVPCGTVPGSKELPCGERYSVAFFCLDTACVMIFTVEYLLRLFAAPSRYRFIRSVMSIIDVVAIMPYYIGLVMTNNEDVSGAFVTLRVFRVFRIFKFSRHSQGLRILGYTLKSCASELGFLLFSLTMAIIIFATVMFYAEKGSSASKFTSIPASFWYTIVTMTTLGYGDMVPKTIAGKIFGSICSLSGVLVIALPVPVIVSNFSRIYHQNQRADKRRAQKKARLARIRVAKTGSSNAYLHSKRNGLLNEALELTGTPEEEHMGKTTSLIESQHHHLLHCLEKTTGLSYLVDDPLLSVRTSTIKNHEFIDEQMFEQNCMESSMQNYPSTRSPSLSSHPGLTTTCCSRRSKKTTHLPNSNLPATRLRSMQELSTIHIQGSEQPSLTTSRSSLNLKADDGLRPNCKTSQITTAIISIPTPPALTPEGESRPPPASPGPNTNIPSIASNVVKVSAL
T1 sequence (Q9NS61 1-270 partner): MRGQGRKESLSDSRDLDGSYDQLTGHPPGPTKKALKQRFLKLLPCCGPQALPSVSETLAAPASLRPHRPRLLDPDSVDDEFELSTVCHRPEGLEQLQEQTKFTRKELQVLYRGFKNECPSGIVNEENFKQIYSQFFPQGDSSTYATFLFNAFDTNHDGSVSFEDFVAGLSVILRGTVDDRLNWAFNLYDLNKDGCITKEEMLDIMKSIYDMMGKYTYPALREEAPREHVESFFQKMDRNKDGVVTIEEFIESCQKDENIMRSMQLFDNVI

NaV1.5 [5] = target: T2, NaV1.5 (Homo sapiens, UniProt Q14524); test: Second IonWorks Quattro NaV1.5 screen (GSK, Q2)
T2 sequence (Q14524 whole entry): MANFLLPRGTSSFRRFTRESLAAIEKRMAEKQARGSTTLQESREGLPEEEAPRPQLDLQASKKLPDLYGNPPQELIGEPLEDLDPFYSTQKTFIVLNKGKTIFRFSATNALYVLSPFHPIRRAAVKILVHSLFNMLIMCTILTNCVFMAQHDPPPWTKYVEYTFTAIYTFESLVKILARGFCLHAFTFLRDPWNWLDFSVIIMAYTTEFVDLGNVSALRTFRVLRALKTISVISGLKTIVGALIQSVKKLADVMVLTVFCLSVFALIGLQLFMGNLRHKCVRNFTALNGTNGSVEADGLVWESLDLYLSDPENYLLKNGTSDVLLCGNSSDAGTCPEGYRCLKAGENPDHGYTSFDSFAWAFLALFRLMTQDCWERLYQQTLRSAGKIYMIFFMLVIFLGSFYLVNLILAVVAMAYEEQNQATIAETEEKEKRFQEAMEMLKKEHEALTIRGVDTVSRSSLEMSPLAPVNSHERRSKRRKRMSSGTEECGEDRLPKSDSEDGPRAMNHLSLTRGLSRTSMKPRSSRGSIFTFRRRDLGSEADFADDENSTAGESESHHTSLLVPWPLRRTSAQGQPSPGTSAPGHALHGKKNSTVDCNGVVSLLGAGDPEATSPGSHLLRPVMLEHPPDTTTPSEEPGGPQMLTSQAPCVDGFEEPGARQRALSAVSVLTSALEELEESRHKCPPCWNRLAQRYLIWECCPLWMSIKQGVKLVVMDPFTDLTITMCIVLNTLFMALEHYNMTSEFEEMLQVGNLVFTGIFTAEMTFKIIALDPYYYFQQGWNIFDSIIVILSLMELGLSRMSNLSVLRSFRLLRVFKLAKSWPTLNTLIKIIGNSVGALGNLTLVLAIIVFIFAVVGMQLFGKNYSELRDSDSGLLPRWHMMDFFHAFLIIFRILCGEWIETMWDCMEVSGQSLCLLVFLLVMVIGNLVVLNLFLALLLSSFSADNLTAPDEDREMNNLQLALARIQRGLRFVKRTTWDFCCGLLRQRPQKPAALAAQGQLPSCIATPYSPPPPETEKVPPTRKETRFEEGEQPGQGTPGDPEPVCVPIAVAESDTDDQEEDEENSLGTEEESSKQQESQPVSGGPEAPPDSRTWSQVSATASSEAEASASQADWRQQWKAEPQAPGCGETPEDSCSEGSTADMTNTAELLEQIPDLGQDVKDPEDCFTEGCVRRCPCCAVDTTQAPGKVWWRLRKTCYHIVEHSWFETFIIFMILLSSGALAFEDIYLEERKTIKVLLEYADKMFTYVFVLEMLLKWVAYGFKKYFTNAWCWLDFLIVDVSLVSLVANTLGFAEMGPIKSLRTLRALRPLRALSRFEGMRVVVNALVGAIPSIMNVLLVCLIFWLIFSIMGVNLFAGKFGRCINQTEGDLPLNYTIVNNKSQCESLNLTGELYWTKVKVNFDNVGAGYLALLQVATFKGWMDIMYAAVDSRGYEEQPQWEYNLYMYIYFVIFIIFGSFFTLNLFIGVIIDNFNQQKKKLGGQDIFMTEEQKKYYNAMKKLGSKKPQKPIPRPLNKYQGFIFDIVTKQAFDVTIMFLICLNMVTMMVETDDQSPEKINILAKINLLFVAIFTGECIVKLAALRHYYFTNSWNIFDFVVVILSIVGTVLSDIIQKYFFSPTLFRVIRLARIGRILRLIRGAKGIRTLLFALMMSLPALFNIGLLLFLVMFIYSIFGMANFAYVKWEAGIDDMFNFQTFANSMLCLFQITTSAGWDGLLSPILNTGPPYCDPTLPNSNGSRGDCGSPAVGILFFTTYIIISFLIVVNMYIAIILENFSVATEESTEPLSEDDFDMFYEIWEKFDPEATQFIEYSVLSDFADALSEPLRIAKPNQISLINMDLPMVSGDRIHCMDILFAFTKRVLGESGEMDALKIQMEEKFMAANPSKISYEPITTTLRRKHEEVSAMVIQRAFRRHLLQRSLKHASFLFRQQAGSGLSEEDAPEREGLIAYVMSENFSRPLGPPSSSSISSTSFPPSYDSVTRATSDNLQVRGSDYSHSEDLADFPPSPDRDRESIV

NaV1.5 [6] = target: T2, NaV1.5; test: IonWorks Quattro NaV1.5 screen (AstraZeneca, Q)
CaV1.2 = CaV1.2 (Homo sapiens, UniProt Q13936); test: IonWorks Quattro CaV1.2 screen (AstraZeneca, Q)
[7] = Cmax high, calculated with PPB and molecular weight
[8] = Cmax low, calculated with PPB and molecular weight
[9] = IonWorks Quattro, −log10 of IC50 in Molar, Hill n = 1, 0.0 = pIC50 ≤ 0 fitted
[10] = Cmax high, calculated from ng/mL and molecular weight
[11] = Cmax low, calculated from ng/mL and molecular weight
[12] = 40 mg, ref FDA product label review
[13] = first (lower) of two lines, not labelled low/high
[14] = second (higher) of two lines, not labelled low/high

SMILES	Cmax FREE ([1]; Cmax high, calculated with PPB) [ng/mL]	Cmax FREE [1, 7] [nM]	Cmax FREE ([1]; Cmax low, calculated with PPB) [ng/mL]	Cmax FREE [1, 8] [nM]	Cmax TOTAL ([3]; Cmax high, ref Gintant (2011)) [ng/mL]	Cmax TOTAL ([3]; Cmax low, ref Gintant (2011)) [ng/mL]	PPB (percent plasma binding) [4]	Kv4.3 pIC50 (Q) (Kv4.3/KChIP2.2; 0.0 = pIC50 ≤ 0 fitted)	Free plasma concentration ([1]; Cmax low) [nM]	further results
Cc1cc(C#N)cc(C)c1Oc1nc(Nc2ccc(C#N)cc2)nc(N)c1Br [Etravirine]	1.322	3.037	0.921	2.116	1322	921	99.9% PPB	2.5	–	QTc change (QTcF) ([2]; TQT study, highest dose, ref Gintant (2011)): -5.70 ms; QT shortening in the TQT study ([2]; ref Gintant (2011)): 2 to 7 ms; TQT study outcome in words (COMMENTS) ([2]; ref Gintant (2011)): QT shortening; KCNQ1 pIC50 (Q) (KCNQ1/MinK): 2.9; mean Cmax ([3]; supratherapeutic / highest dose of the TQT study, ref Gintant (2011)): 1378 ng/mL
O=C(O)c1ccc(-n2nc(-c3ccccc3O)nc2-c2ccccc2O)cc1 [Deferasirox]	–	–	–	–	–	–	99.5%	–	–	Cmax FREE ([1]; Cmax 40mg/kg): 995 nM; Cmax TOTAL ([1]; Cmax 40mg/kg): 199000 nM; Free plasma concentration ([1]; Cmax 40mg/kg): 995 nM; NaV1.5 pIC50 (Q2) (NaV1.5 [5]; second independent Quattro screening, −log10 of IC50 in Molar, 0.0 = pIC50 ≤ 0 fitted): 3.3; Cmax TOTAL ([3]; Cmax TQT, 40mg/kg, comes from docs, ref Gintant (2011)): 199 comes from docs for Cmax uM; NaV1.5 pIC50 (Q) (NaV1.5 [6]; [9]): 4.1; CaV1.2 pIC50 (Q) (CaV1.2; [9]): 3.0
COc1cc2nc(N(C)CCCNC(=O)C3CCCO3)nc(N)c2cc1OC (stereo not shown) [Alfuzosin]	4.05	7.74	0.80	–	40.5	8	90% ppb	3.0	1.529	Free plasma concentration ([1]; Cmax high): 7.739 nM; Cmax TOTAL [1, 10]: 77.39 nM; Cmax TOTAL [1, 11]: 15.29 nM; estimated TQT concentration (free plasma) ([1]; largest dose in the TQT study): < 10^–2 μM; QTc change, individual correction [2, 12]: 4.3 ms; QTc change, population correction [2, 12]: 4.2 ms; KCNQ1 pIC50 (Q) (KCNQ1/MinK): 3.9
O=C(O[C@H]1CN2CCC1CC2)N1CCc2ccccc2[C@@H]1c1ccccc1 [Solifenacin]	–	–	–	–	–	–	98% PPB	–	–	–
N[C@@H](CC(=O)N1CCn2c(nnc2C(F)(F)F)C1)Cc1cc(F)c(F)cc1F [Sitagliptin]	3827.6	9397.17	348.6	855.851	5468	498	30% PPB	–	–	TQT study outcome in words (COMMENTS) ([2]; ref Gintant (2011)): Minimal effects at supratherapeutic concentrations; NaV1.5 pIC50 (Q2) (NaV1.5 [5]): 3.2; KCNQ1 pIC50 (Q) (KCNQ1/MinK): 3.5; NaV1.5 pIC50 (Q) (NaV1.5 [6]): 3.1; CaV1.2 pIC50 (Q) (CaV1.2; [9]): 1.0
COCCCOc1cc(C[C@@H](C[C@H](N)[C@@H](O)C[C@H](C(=O)NCC(C)(C)C(N)=O)C(C)C)C(C)C)ccc1OC [ALISKIRIN]	–	–	–	–	–	–	–	–	–	relationship between exposure and QTc in words (COMMENTS) ([2]; ref Gintant (2011)): Lack of relationship between aliskirin exposure and QTcF
C[C@@H](O)[C@H]1C(=O)N2C(C(=O)O)=C(S[C@@H]3CN[C@H](CNS(N)(=O)=O)C3)[C@H](C)[C@H]12 [Doripenem]	41355	98346.2	19299	45894.9	45000	21000	8.1% PPB	–	45894.9	Free plasma concentration ([1]; Cmax high): 98346.2 nM; CaV1.2 pIC50 (Q) (CaV1.2): 5.7
CCCc1nn(C)c2c(=O)[nH]c(-c3cc(S(=O)(=O)N4CCN(C)CC4)ccc3OCC)nc12 [Sildenafil]	60.76	128.024	7.12	15.0021	–	–	96%	3.3	–	NaV1.5 pIC50 (Q2) (NaV1.5 [5]): 2.9; NaV1.5 pIC50 (Q) (NaV1.5 [6]): 3.3
NC(=O)C(c1ccccc1)(c1ccccc1)[C@@H]1CCN(CCc2ccc3c(c2)CCO3)C1 [Darifenacin]	–	–	–	–	–	–	98% PPB	4.9	–	Cmax FREE [1, 13]: 0.112 ng/mL and 0.2207 nM; Cmax TOTAL [1, 13]: 11.0345 nM; Free plasma concentration [1, 13]: 0.2207 nM; Cmax FREE [1, 14]: 1.266 ng/mL and 2.495 nM; Cmax TOTAL [1, 14]: 124.729 nM; Free plasma concentration [1, 14]: 2.495 nM; QT shortening in the TQT study ([2]; ref Gintant (2011)): 2 to 7 ms; Cmax TOTAL ([3]; first (lower) of two lines, not labelled low/high, ref Gintant (2011)): 5.6 ng/mL; Cmax TOTAL ([3]; second (higher) of two lines, not labelled low/high, ref Gintant (2011)): 63.3 ng/mL
O=C1c2cccc3c2[C@H](CCC3)CN1[C@@H]1CN2CCC1CC2 [Palonosetron]	2.128	6.393	0.9686	2.910	5.6	2.549	62%	–	2.91	Free plasma concentration ([1]; Cmax high): 6.393 nM; Cmax TOTAL [1, 10]: 16.823 nM; Cmax TOTAL [1, 11]: 7.658 nM; TQT study outcome in words (COMMENTS) ([2]; ref Gintant (2011)): Product labeling: no significant effect on any ECG interval
CO[C@H]1C[C@@H]2CC[C@@H](C)[C@@](O)(O2)C(=O)C(=O)N2CCCC[C@H]2C(=O)O[C@H]([C@H](C)C[C@@H]2CC[C@@H](OCCO)[C@H](OC)C2)CC(=O)[C@H](C)/C=C(\C)[C@@H](O)[C@@H](OC)C(=O)[C@H](C)C[C@H](C)/C=C/C=C/C=C/1C [Everolimus]	–	–	–	–	–	–	74%	2.0	–	Cmax FREE ([1]; Cmax 50mg/kg): 65.26 ng/mL; Cmax TOTAL ([1]; Cmax 50mg/kg): 261.943 nM; NaV1.5 pIC50 (Q2) (NaV1.5 [5]): 3.7; KCNQ1 pIC50 (Q) (KCNQ1/MinK): 4.0; Cmax TOTAL ([3]; Cmax 50mg/kg, ref http://journals.lww.com/jto/pages/articleviewer.aspx?year=2011&issue=12000&article=00023&type=abstract Table 6): 251 ng/mL; NaV1.5 pIC50 (Q) (NaV1.5 [6]): 3.2
Cc1nc(Nc2ncc(C(=O)Nc3c(C)cccc3Cl)s2)cc(N2CCN(CCO)CC2)n1.O [Dasatinib]	10.52	20.790	4	7.905	263	100	96% PPB	–	7.905	Free plasma concentration ([1]; Cmax high): 20.79 nM; Cmax TOTAL [1, 10]: 519.742 nM; Cmax TOTAL [1, 11]: 197.621 nM; Kv4.3 pIC50 (Q) (Kv4.3/KChIP2.2; […]): 3.5
CC[C@@H](c1cccc(O)c1)[C@@H](C)CN(C)C [TAPENTADOL]	–	–	–	–	–	–	–	–	–	TQT study outcome in words (COMMENTS) ([2]; ref Gintant (2011)): 90% Confidence interval; study considered negative
COc1c(N2C[C@@H]3CCCN[C@@H]3C2)c(F)cc2c(=O)c(C(=O)O)cn(C3CC3)c12 [Moxifloxacin]	–	–	1257.030	–	–	2793.4	55% PPB	–	2745	–
Cc1cn(-c2cc(NC(=O)c3ccc(C)c(Nc4nccc(-c5cccnc5)n4)c3)cc(C(F)(F)F)c2)cn1 [Nilotinib]	–	–	45.200	83.861	–	[…]	98% PPB	–	83.86	Cmax TOTAL [1, 11]: 4193.028 nM; NaV1.5 pIC50 (Q2) (NaV1.5 [5]): […]; NaV1.5 pIC50 (Q) (NaV1.5 [6]): 3.0
CN(CCOc1ccc(NS(C)(=O)=O)cc1)CCc1ccc(NS(C)(=O)=O)cc1 [Dofetilide]	–	–	–	–	–	–	–	–	–	plasma concentration ([1]; end of the line in nM): 9.5 nM; plasma concentration ([1]; end of the line in ng/mL): 4.195 nM; therapeutic range, lower value ([1]; line in ng/mL): 0.1766 ng/mL; therapeutic range, upper value ([1]; line in ng/mL): 0.8832 ng/mL; total plasma conc ([1]; line in ng/mL): 4.1952 ng/mL; total plasma conc ([3]; ref Gintant (2011)): 9.5 nM
